# According to US20160264536A1, “HETEROCYCLIC COMPOUND” (Takeda Pharmaceutical Company Limited, priority 2013, published 2016):
# Target: T1, human PDE2A3 enzyme (Homo sapiens, UniProt O00408)
# T1 construct: Human PDE2A3 full-length gene was transduced into Sf9; His-tag; made in house; host or cells: Sf9 insect cells
# Assay: PDE enzyme inhibitory assay (SPA, [3H]cGMP substrate)
# Type: biochemical
# Conditions: compound 1 μM, substrate [3H]cGMP 77 nM, read-out: inhibitory rate (%) (1 μM)
# Experimental: PDE Enzyme Inhibitory Assay
# Human PDE2A3 full-length gene was transduced into Sf9, and human PDE2A3 enzyme was purified by His-tag affinity column and gel filtration. The enzyme was stored at −70° C. until use. PDE activity was measured by using a SPA (Scintillation Proximity Assay) (GE Healthcare). To evaluate the inhibitory activity of the compound, 10 μl of serial diluted compounds were reacted with 20 μl of PDE enzyme in assay buffer (50 mM HEPES-NaOH, 8.3 mM MgCl2, 1.7 mM EGTA, 0.1% BSA (pH 7.4)) for 30 min at room temperature. Final concentration of DMSO in the reaction solution was 1%. Compounds were tested in duplicate in 96-well half-area plates (Corning) or 384-well OptiPlate (PerkinElmer). To start the reaction, 10 μl of substrate [^3H]cGMP (final concentration 77 nM, PerkinElmer) was added to a total volume of 40 μl. After reaction for 60 min at room temperature, 20 μl of 20 mg/mL yttrium SPA beads containing zinc sulfate was added to terminate the reaction. After being settled for further 1 hour, the assay plates were counted in a scintillation counter (PerkinElmer) to allow calculation of inhibition rate. Inhibition rate was calculated on the basis of 0% control wells with enzyme and DMSO, and 100% control wells without enzyme.
# T1 sequence (O00408 whole entry): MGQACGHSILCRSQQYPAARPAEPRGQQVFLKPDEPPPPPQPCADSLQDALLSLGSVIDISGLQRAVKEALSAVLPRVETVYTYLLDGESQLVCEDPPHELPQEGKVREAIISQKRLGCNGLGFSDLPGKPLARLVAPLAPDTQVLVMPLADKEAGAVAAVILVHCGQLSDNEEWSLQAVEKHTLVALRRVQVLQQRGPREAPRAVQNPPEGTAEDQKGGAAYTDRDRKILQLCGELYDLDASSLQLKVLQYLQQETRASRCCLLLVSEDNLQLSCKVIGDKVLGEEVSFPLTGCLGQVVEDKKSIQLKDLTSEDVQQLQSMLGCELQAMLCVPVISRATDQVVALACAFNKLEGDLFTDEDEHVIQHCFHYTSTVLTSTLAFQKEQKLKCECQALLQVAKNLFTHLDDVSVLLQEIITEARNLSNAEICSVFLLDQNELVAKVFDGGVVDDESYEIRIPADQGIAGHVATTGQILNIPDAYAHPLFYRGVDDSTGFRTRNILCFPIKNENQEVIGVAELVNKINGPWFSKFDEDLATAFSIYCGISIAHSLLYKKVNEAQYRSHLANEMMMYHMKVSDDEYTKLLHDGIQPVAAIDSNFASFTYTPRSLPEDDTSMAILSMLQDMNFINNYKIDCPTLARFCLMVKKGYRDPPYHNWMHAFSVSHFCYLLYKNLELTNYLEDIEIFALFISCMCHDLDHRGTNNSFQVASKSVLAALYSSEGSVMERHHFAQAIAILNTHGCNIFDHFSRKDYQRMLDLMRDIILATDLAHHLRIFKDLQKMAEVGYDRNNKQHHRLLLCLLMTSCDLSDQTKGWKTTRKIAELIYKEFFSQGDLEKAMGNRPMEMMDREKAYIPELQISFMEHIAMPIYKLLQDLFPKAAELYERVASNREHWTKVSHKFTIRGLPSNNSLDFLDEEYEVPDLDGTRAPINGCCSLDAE
row,inhibition at 1 µM [%],Structure (SMILES)
1,98,"COC[C@@H](NC(=O)c1cc(=O)[nH]c(N(C)C)n1)c1ccc(OC(F)(F)F)cc1 [Example 20, 2-(dimethylamino)-N-((1S)-2-methoxy-1-(4-(trifluoromethoxy)phenyl)ethyl)-6-oxo-1,6-dihydropyrimidine-4-carboxamide]"
2,99,"COC[C@@H](NC(=O)c1cc(=O)[nH]c(N(C)C)n1)c1ccc(OC(F)(F)F)c(F)c1 [Example 33, 2-(dimethylamino)-N-((1S)-1-(3-fluoro-4-(trifluoromethoxy)phenyl)-2-methoxyethyl)-6-oxo-1,6-dihydropyrimidine-4-carboxamide]"
3,97,"COC[C@@H](NC(=O)c1cc(=O)[nH]c(N2CC[C@H](OC)C2)n1)c1ccc(OC(F)(F)F)cc1 [Example 45, 2-((3S)-3-methoxypyrrolidin-1-yl)-N-((1S)-2-methoxy-1-(4-(trifluoromethoxy)phenyl)ethyl)-6-oxo-1,6-dihydropyrimidine-4-carboxamide]"
4,102,"COC[C@@H](NC(=O)c1cc(=O)[nH]c(N2CCCC2)n1)c1ccc(OC(F)(F)F)cc1 [Example 52, N-((1S)-2-methoxy-1-(4-(trifluoromethoxy)phenyl)ethyl)-6-oxo-2-(pyrrolidin-1-yl)-1,6-dihydropyrimidine-4-carboxamide]"
5,98,"COC[C@@H](NC(=O)c1cc(=O)[nH]c(N2CC(OC)C2)n1)c1ccc(OC(F)(F)F)cc1 [Example 55, 2-(3-methoxyazetidin-1-yl)-N-((1S)-2-methoxy-1-(4-(trifluoromethoxy)phenyl)ethyl)-6-oxo-1,6-dihydropyrimidine-4-carboxamide]"
6,98,"COC[C@@H](NC(=O)c1cc(=O)[nH]c(N2CCCC2)n1)c1ccc(OC(F)(F)F)c(F)c1 [Example 61, N-((1S)-1-(3-fluoro-4-(trifluoromethoxy)phenyl)-2-methoxyethyl)-6-oxo-2-(pyrrolidin-1-yl)-1,6-dihydropyrimidine-4-carboxamide]"
7,99,"CC(C)(O)C(NC(=O)c1cc(=O)[nH]c(N2CCCC2)n1)c1ccc(OC(F)(F)F)c(F)c1 (stereo not drawn) [Example 62, N-(1-(3-fluoro-4-(trifluoromethoxy)phenyl)-2-hydroxy-2-methylpropyl)-6-oxo-2-(pyrrolidin-1-yl)-1,6-dihydropyrimidine-4-carboxamide]"
8,100,"COC[C@@H](NC(=O)c1cc(=O)[nH]c(N2CC[C@H](OC(C)C)C2)n1)c1ccc(OC(F)(F)F)cc1 [Example 67, 2-((3S)-3-isopropoxypyrrolidin-1-yl)-N-((1S)-2-methoxy-1-(4-(trifluoromethoxy)phenyl)ethyl)-6-oxo-1,6-dihydropyrimidine-4-carboxamide]"
9,101,"CCN(C)c1nc(C(=O)N[C@H](COC)c2ccc(OC(F)(F)F)c(F)c2)cc(=O)[nH]1 [Example 76, 2-(ethyl(methyl)amino)-N-((1S)-1-(3-fluoro-4-(trifluoromethoxy)phenyl)-2-methoxyethyl)-6-oxo-1,6-dihydropyrimidine-4-carboxamide]"
10,94,"COC[C@@H](NC(=O)c1cc(=O)[nH]c(C(C)(C)C)n1)c1ccc(OC(F)(F)F)c(F)c1 [Example 80, 2-tert-butyl-N-((1S)-1-(3-fluoro-4-(trifluoromethoxy)phenyl)-2-methoxyethyl)-6-oxo-1,6-dihydropyrimidine-4-carboxamide]"
11,93,"COC[C@@H](NC(=O)c1cc(=O)[nH]c(C2CC2)n1)c1ccc(OC(F)(F)F)c(F)c1 [Example 81, 2-cyclopropyl-N-((1S)-1-(3-fluoro-4-(trifluoromethoxy)phenyl)-2-methoxyethyl)-6-oxo-1,6-dihydropyrimidine-4-carboxamide]"
12,98,"COC[C@@H](NC(=O)c1cc(=O)[nH]c(C2=CCCC2)n1)c1ccc(OC(F)(F)F)c(F)c1 [Example 83, 2-(cyclopent-1-en-1-yl)-N-((1S)-1-(3-fluoro-4-(trifluoromethoxy)phenyl)-2-methoxyethyl)-6-oxo-1,6-dihydropyrimidine-4-carboxamide]"
13,98,"COC[C@@H](NC(=O)c1cc(=O)[nH]c(-c2ccccc2)n1)c1ccc(OC(F)(F)F)c(F)c1 [Example 87, N-((1S)-1-(3-fluoro-4-(trifluoromethoxy)phenyl)-2-methoxyethyl)-6-oxo-2-phenyl-1,6-dihydropyrimidine-4-carboxamide]"
14,92,"COC[C@@H](NC(=O)c1cc(=O)[nH]c(-c2ccccn2)n1)c1ccc(OC(F)(F)F)c(F)c1 [Example 88, N-((1S)-1-(3-fluoro-4-(trifluoromethoxy)phenyl)-2-methoxyethyl)-6-oxo-2-(pyridin-2-yl)-1,6-dihydropyrimidine-4-carboxamide]"
15,104,"CC(C)(C)c1nc(C(=O)N[C@@H](c2ccc(OC(F)(F)F)c(F)c2)C(C)(C)O)cc(=O)[nH]1 [Example 95, 2-tert-butyl-N-(1-(3-fluoro-4-(trifluoromethoxy)phenyl)-2-hydroxy-2-methylpropyl)-6-oxo-1,6-dihydropyrimidine-4-carboxamide]"
16,94,"CC(C)(O)[C@@H](NC(=O)c1cc(=O)[nH]c(C2CC2)n1)c1ccc(OC(F)(F)F)c(F)c1 [Example 96, 2-cyclopropyl-N-((1S)-1-(3-fluoro-4-(trifluoromethoxy)phenyl)-2-hydroxy-2-methylpropyl)-6-oxo-1,6-dihydropyrimidine-4-carboxamide]"
17,102,"CC(C)(O)[C@@H](NC(=O)c1cc(=O)[nH]c(-c2ccccn2)n1)c1ccc(OC(F)(F)F)c(F)c1 [Example 102, N-((1S)-1-(3-fluoro-4-(trifluoromethoxy)phenyl)-2-hydroxy-2-methylpropyl)-6-oxo-2-(pyridin-2-yl)-1,6-dihydropyrimidine-4-carboxamide]"
18,108,"COC[C@@H](NC(=O)c1cc(=O)[nH]c(C2(C)CC2)n1)c1ccc(OC(F)(F)F)c(F)c1 [Example 103, N-((1S)-1-(3-fluoro-4-(trifluoromethoxy)phenyl)-2-methoxyethyl)-2-(1-methylcyclopropyl)-6-oxo-1,6-dihydropyrimidine-4-carboxamide]"
19,104,"COC[C@@H](NC(=O)c1cc(=O)[nH]c(-c2ccc(OC)cn2)n1)c1ccc(OC(F)(F)F)c(F)c1 [Example 105, N-((1S)-1-(3-fluoro-4-(trifluoromethoxy)phenyl)-2-methoxyethyl)-2-(5-methoxypyridin-2-yl)-6-oxo-1,6-dihydropyrimidine-4-carboxamide]"
20,97,"COC[C@@H](NC(=O)c1cc(=O)[nH]c(-c2cccs2)n1)c1ccc(OC(F)(F)F)c(F)c1 [Example 107, N-((1S)-1-(3-fluoro-4-(trifluoromethoxy)phenyl)-2-methoxyethyl)-6-oxo-2-(2-thienyl)-1,6-dihydropyrimidine-4-carboxamide]"
21,94,"CC#Cc1nc(C(=O)N[C@H](COC)c2ccc(OC(F)(F)F)c(F)c2)cc(=O)[nH]1 [Example 111, N-((1S)-1-(3-fluoro-4-(trifluoromethoxy)phenyl)-2-methoxyethyl)-6-oxo-2-(prop-1-yn-1-yl)-1,6-dihydropyrimidine-4-carboxamide]"
22,104,"CC(C)(O)[C@@H](NC(=O)c1cc(=O)[nH]c(C2=CCCC2)n1)c1ccc(OC(F)(F)F)c(F)c1 [Example 114, 2-(cyclopent-1-en-1-yl)-N-((1S)-1-(3-fluoro-4-(trifluoromethoxy)phenyl)-2-hydroxy-2-methylpropyl)-6-oxo-1,6-dihydropyrimidine-4-carboxamide]"
23,100,"COC[C@@H](NC(=O)c1cc(=O)[nH]c(C2=CCCC2)n1)c1ccc(OC(F)(F)F)cc1 [Example 115, 2-(cyclopent-1-en-1-yl)-N-((1S)-2-methoxy-1-(4-(trifluoromethoxy)phenyl)ethyl)-6-oxo-1,6-dihydropyrimidine-4-carboxamide]"
24,99,"COCC(NC(=O)c1cc(=O)[nH]c(-c2ccccn2)n1)c1ccc(-n2cccc2)c(F)c1 (stereo not drawn) [Example 116, N-(1-(3-fluoro-4-(1H-pyrrol-1-yl)phenyl)-2-methoxyethyl)-6-oxo-2-(pyridin-2-yl)-1,6-dihydropyrimidine-4-carboxamide]"
25,103,"COC[C@@H](NC(=O)c1cc(=O)[nH]c(-c2ccsc2)n1)c1ccc(OC(F)(F)F)c(F)c1 [Example 120, N-((1S)-1-(3-fluoro-4-(trifluoromethoxy)phenyl)-2-methoxyethyl)-6-oxo-2-(3-thienyl)-1,6-dihydropyrimidine-4-carboxamide]"
26,95,"COC[C@@H](NC(=O)c1cc(=O)[nH]c(-c2ccco2)n1)c1ccc(OC(F)(F)F)c(F)c1 [Example 121, N-((1S)-1-(3-fluoro-4-(trifluoromethoxy)phenyl)-2-methoxyethyl)-2-(2-furyl)-6-oxo-1,6-dihydropyrimidine-4-carboxamide]"

row,Structure (SMILES),inhibition at 1 µM [%]
1,"COC[C@@H](NC(=O)c1cc(=O)[nH]c(N2CC3CC(C2)O3)n1)c1ccc(OC(F)(F)F)c(F)c1 [Example 73, N-((1S)-1-(3-fluoro-4-(trifluoromethoxy)phenyl)-2-methoxyethyl)-2-(6-oxa-3-azabicyclo[3.1.1]hept-3-yl)-6-oxo-1,6-dihydropyrimidine-4-carboxamide]",99
